Earlier results, collected in patent US20100092463A1, “Method for treating or preventing osteoporosis by reducing follicle stimulating hormone to cyclic physiological levels in a mammalian subject” (Searete LLC, a limited liability corporation of the State …, priority 2008, published 2010).
Where a SMILES comes first, the peptide text is derived from it. [ ]: non-standard residue; d: D form. d(hArg(Et2)) = CCN=C(NCC)NCCCC[C@@H](N)C(=O)O; hArg(Et2) = CCN=C(NCC)NCCCC[C@H](N)C(=O)O; dPhe(4-Cl) = N[C@H](Cc1ccc(Cl)cc1)C(=O)O; d2Nal = N[C@H](Cc1ccc2ccccc2c1)C(=O)O; dCit = NC(=O)NCCC[C@@H](N)C(=O)O; d3Pal = N[C@H](Cc1cccnc1)C(=O)O

Conditions: most common adverse effects being nausea and headache

SMILES | tolerability
CC(=O)N[C@H](Cc1ccc2ccccc2c1)C(=O)N[C@H](Cc1ccc(Cl)cc1)C(=O)N[C@H](Cc1cccnc1)C(=O)N[C@@H](CO)C(=O)N[C@@H](Cc1ccc(O)cc1)C(=O)N[C@H](CCCNC(N)=O)C(=O)N[C@@H](CC(C)C)C(=O)N[C@@H](CCCNC(=N)N)C(=O)N1CCC[C@H]1C(=O)N[C@H](C)C(N)=O [cetrorelix] (Ac-[d2Nal][dPhe(4-Cl)][d3Pal]SY[dCit]LRP[dA]-NH2) | well tolerated
CCN=C(NCC)NCCCC[C@H](NC(=O)[C@H](CC(C)C)NC(=O)[C@@H](CCCCNC(=NCC)NCC)NC(=O)[C@H](Cc1ccc(O)cc1)NC(=O)[C@H](CO)NC(=O)[C@@H](Cc1cccnc1)NC(=O)[C@@H](Cc1ccc(Cl)cc1)NC(=O)[C@@H](Cc1ccc2ccccc2c1)NC(C)=O)C(=O)N1CCC[C@H]1C(=O)N[C@H](C)C(N)=O [ganirelix] (Ac-[d2Nal][dPhe(4-Cl)][d3Pal]SY[d(hArg(Et2))]L[hArg(Et2)]P[dA]-NH2) | well tolerated
